Like-named read-outs stand apart in the source and are kept apart here.

In assay [1] the test system is isolated perfused guineapig hearts. The experiment in a line: Coronary and circulatory activity on isolated perfused guineapig hearts. The note with it: Cavia porcellus, 10^-6 g/ml, difference to starting pressure set as 100%. The text has this:
The coronary and circulatory activities were discovered using isolated perfused guineapig hearts.
For this, the hearts of 250 to 350 g guineapigs are used. The animals are killed by a blow to the head, the thorax is opened, and a metal cannula is tied into the exposed aorta. The heart is removed from the thorax with the lungs and is connected to the perfusion apparatus through an aortic cannula, with continuous perfusion. The lungs are removed at the lung roots. A Krebs Henseleit solution (1) (118.5 mmol/l of NaCl, 4.75 mmol/l of KCl, 1.19 mmol/l of KH2 PO4, 1.19 mmol/l of MgSO4, 25 mmol/l of NaHCO3, 0.013 mmol/l of Na2 EDTA), which contains 1.2 mmol/l of CaCl2, is used as the perfusion medium. 10 mmol/l of glucose are added as an energy-liberating substrate. Before the perfusion the solution is filtered until free of particles. The solution is gassed with Carbogen (95% O2, 5% CO2) in order to maintain a pH value of 7.4. The hearts are perfused at a constant flow rate (10 ml/min) at 32° C. using a peristaltic pump.
In order to measure the cardiac function, a latex balloon filled with liquid and connected through a column of liquid to a pressure gauge is introduced into the left ventricle through the left auricle, and the isovolumetric contractions are recorded on a high-speed recorder (Opie, L., J. Physiol. 180 (1965) 529-541). The perfusion pressure is recorded using a pressure gauge which is connected to the perfusion system upstream of the heart. Under these conditions a decrease in the perfusion pressure indicates coronary dilation, and a rise or fall in the amplitude of contraction of the left ventricle indicates an increase or decrease in cardiac contractility. The compounds according to the invention are infused into the perfusion medium at suitable dilutions just upstream of the isolated heart.
The following values show, as an example, the effect of the compounds according to the invention on isolated perfused guineapig hearts, expressed as the percentage difference to the starting pressure, set as equivalent to 100%.

The subject of another assay is TXA2 synthesis. In words: Inhibition of TXA2 synthesis (3H-arachidonic acid metabolism in washed human thrombocytes, TLC). Format: cell-based. The note with it: 10 min, 2 min pre-incubation, 10 min with 3H-arachidonic acid, 37° C., read-out: Minimal effective concentration for inhibition (MEC) of TXA2 synthesis. From the text: Arachidonic acid metabolism in human thrombocytes was investigated using tritium-labelled arachidonic acid. Thrombocytes metabolize arachidonic acid to TXA2 and HHT via the cyclooxygenase pathway and to 12-HETE via the lipoxygenase pathway, which can be separated by thin layer chromatography [cf Bailey, J.M. et al., Prostaglandins 13, 479-492, (1977)], Inhibitors of the individual enzymatic reactions alter the chromatographic distribution pattern in a characteristic manner.
Washed human thrombocytes from healthy donors who had taken no drug for 14 days were incubated for 2 minutes at 37° C. with the test substance and then incubated for a further 10 minutes at 37° C. with ^3 H-arachidonic acid. The suspension was acidified and extracted with ethyl acetate. The ethyl acetate was evaporated off under a nitrogen atmosphere and the residue was taken up in methanol/trichloromethane (1:1) and applied to TLC plastic sheets. Separation was performed using a trichloromethane/methanol/glacial acetic acid/water (80:8:1:0.8) mobile solvent mixture. The distribution of radioactivity was measured by means of a radioscanner (Table 1).

Another assay concerns PGI2 synthesis. The experiment in a line: Prostacyclin stimulation in whole blood (collagen-induced, 6-keto-PGF1α radioimmunologically). Format: cell-based. To be noted: read-out: Stimulation of PGI2 synthesis (MEC). Here is the method:
The 1,4-dihydrophyridines to be used according to the invention additionally stimulate the synthesis of PGI2. PGI2 has vasodilating and thrombocyte aggregation inhibiting activity, in contrast with the vasoconstrictor and thrombocyte aggregation […] action of thromboxan.
In whole blood, collagen induces the formation of PGI2. The endoperoxides formed in the thrombocytes are probably converted into PGI2 by leucocytes. The stable end product of PGI2 conversion, 6-keto-PGF1 α, is determined radioimmunologically (Table 2).

The mark [2] stands for this setting: decrease indicates coronary dilation, read-out: % alteration in perfusion pressure.
[3] abbreviates: read-out: % alteration in contractility.

`CCOC(=O)C1=C(C)NC(C)=C(C(=O)OCc2ccc(C3=NNC(=O)CC3)cc2)C1c1cccc([N+](=O)[O-])c1` (stereo not shown) [Example 7, Ethyl 4-(6-oxo-1,4,5,6-tetrahydropyridazin-3-yl)benzyl 1,4-dihydro-2,6-dimethyl-4-(3-nitrophenyl)-pyridine-3,5-dicarboxylate]: in assay [1] (setting [2]), the percent change at 1 µg/mL amounted to 0%. Also, the inhibition at 1 µg/mL in assay [1] (setting [3]) turned out to be 60%. With `CC1=C(C(=O)OCCCc2cccnc2)C(CCc2cccnc2)C(C(=O)OCc2ccc(C3=NNC(=O)CC3)cc2)=C(C)N1` (stereo not shown) [Example 11], the inhibition at 1 µg/mL in assay [1] (setting [2]) was found to be 36%; in assay [1] (setting [3]), 23%. Besides, the minimal effective concentration in the assay on TXA2 synthesis is 0.1 µg/mL.

Regarding `COC(=O)C1=C(C)NC(C)=C(C(=O)OCc2ccc(C3=NNC(=O)CC3)cc2)C1c1ccccc1Cl` (stereo not shown) [Example 13], the percent change at 1 µg/mL in assay [1] (setting [2]) is 0%. The inhibition at 1 µg/mL in assay [1] (setting [3]) was 78%. For the compound `COC(=O)C1=C(C)NC(C)=C(C(=O)OCc2ccc(C3=NNC(=O)CC3)cc2)C1CCc1cccnc1` (stereo not shown) [Example 16], the minimal effective concentration in the assay on TXA2 synthesis is 0.1 µg/mL. On the same count and under the same terms, to `CC(=O)C1=C(C)NC(C)=C(C(=O)OCc2ccc(C3=NNC(=O)CC3)cc2)C1CCc1cccnc1` (stereo not shown) [Example 18] belongs 0.1 µg/mL; to `CC1=C(C#N)C(CCc2cccnc2)C(C(=O)OCc2ccc(C3=NNC(=O)CC3)cc2)=C(C)N1` (stereo not shown) [Example 19], 0.1 µg/mL.

In the case of `COC(=O)C1=C(C)NC(C)=C(C(=O)OCCc2ccc(C3=NNC(=O)CC3)cc2)C1CCc1cccnc1` (stereo not shown) [Example 21], the minimal effective concentration with PGI2 synthesis is under 3 µg/mL.

Turning to `CC1=C(C(=O)OCCCc2cccnc2)C(CCc2cccnc2)C(C(=O)OCCc2ccc(C3=NNC(=O)CC3)cc2)=C(C)N1` (stereo not shown) [Example 22], the minimal effective concentration in the assay on TXA2 synthesis is under 0.1 µg/mL; in the assay on PGI2 synthesis, under 1 µg/mL.

The values are drawn from patent publication US4876255A, “Substituted 1,4-dihydropyridines for control of circulation and thromboses” (Bayer Aktiengesellschaft, priority 1987, dated 1989).
